The values that follow come from US7550509B2, “Carisoprodol articles and methods” (Mutual Pharmaceutical Company, Inc., priority 2006, dated 2009).

For orientation: Tmax means the time at which the peak concentration occurs. A word on the Cmax: it is the maximum level reached in the sampled fluid or tissue.

Each structure is given as a SMILES string. Like-named read-outs stand apart in the source and are kept apart here.

Series [1] in a line: Biostudy of carisoprodol (SOMA®) pharmacokinetics under non-fasted and fasted conditions, randomized single-dose two-way crossover. As to conditions: for AUC(0-inf) / AUC(0-t) / Tmax / Cmax: plasma; for AUC(0-inf): read-out: AUC0-INF, geometric mean (ln-transformed); for AUC(0-t): read-out: AUC0-t, geometric mean (ln-transformed); for Tmax: read-out: Tmax, least sq. mean (non-transformed); for Cmax: single dose SOMA®, 22 subjects, read-out: Cmax, geometric mean (ln-transformed). Type of series: in vivo, human (healthy adults). As to the method: A biostudy was conducted under fasted and non-fasted conditions.
The dosage form is administered with 240 ml of water during the fasting period, and water can be allowed ad libitum after 2 hours.
As used herein, for the purposes of biostudy and the determination of bioequivalence, a non-fasted patient is defined as a patient who fasts for at least 10 hours overnight and then consumes an entire test meal within 30 minutes of first ingestion. The dosage form is administered with 240 mL of water at 30 minutes after first ingestion of the meal. No food is then allowed for at least 4 hours post-dose. Water can be allowed ad libitum after 2 hours. A high fat test meal provides approximately 1000 calories to the patient of which approximately 50% of the caloric content is derived from fat content of the meal. A representative high fat high calorie test meal comprises 2 eggs fried in butter, 2 strips of bacon, 2 slices of toast with butter, 4 ounces of hash brown potatoes, and 8 ounces of whole milk to provide 150 protein calories, 250 carbohydrate calories, and 500 to 600 fat calories.
The study was designed as a randomized, single-dose two-way crossover to compare the pharmacokinetic parameters of SOMA®. Twenty-four healthy adults participated in this comparison study and 22 of the subjects completed the study. Subjects received two separate drug administration treatments in assigned periods, one treatment per period, according to the randomization schedule. Dosing days were separated by a washout period of at least seven days. Blood samples were drawn prior to dosing (pre-dose) and at 0.33, 0.67, 1, 1.5, 2, 2.5, 3, 3.5, 4, 5, 6, 7, 8, 10, 12, 18, and 24 hours post-dose. The samples were then analyzed for carisoprodol and meprobamate.
The following pharmacokinetic parameters may be determined from the plasma concentration data:
The area under the plasma concentration versus time curve [AUCt] may be calculated using the linear trapezoidal rule from the zero time point to the last measured concentration.
The area under the plasma concentration versus time curve from zero to infinity [AUC0-INF] may be calculated by adding Ct/Kelm to AUC where Ct is the last measured concentration and Kelm is the elimination rate constant.
The maximum observed plasma concentration [Cmax] may be obtained by inspection. The Cmax may also be designated as CMAX.
The time to maximum plasma concentration [Tmax] may be obtained by inspection. If the same maximum plasma concentration occurs at more than one time point, the first may be chosen as Tmax.
The terminal elimination rate constant [Kelm] may be obtained from the slope of the line, fitted by linear least squares regression, through the terminal points of the 1n(base e) of the concentration versus time plot for these points.
The half-life [T1/2] may be calculated by the equation T1/2=0.693/Kelm.

The conditions of series [2]: cited from earlier work.
[3] abbreviates: carisoprodol, non-fasted compared to fasted.
Setting [4] is: carisoprodol, non-fasted vs fasted.
Where [5] appears, read: human, oral, carisoprodol in plasma, fasted.
[6] abbreviates: human, oral, carisoprodol in plasma, non-fasted.

Take `CCCC(C)(COC(N)=O)COC(=O)NC(C)C` (stereo not drawn) [carisoprodol, N-isopropyl-2-methyl-2-propyl-1,3-propanediol dicarbamate]: in series [1] (carisoprodol in plasma, fasted), the “T½, least sq. mean” value turned out to be 1.95 h and the “kelm (elimination rate constant), least sq. mean” value came to 0.376. The “kelm (elimination rate constant), least sq. mean” value in series [1] (carisoprodol in plasma, non-fasted) stood at 0.3713. Moreover, in series [1] (setting [3]), the “decrease in the geometric mean of Cmax in the presence of food” value was determined as 16%; the “effect of food on AUC (AUC0-t and AUC0-INF) (in words)” value is “substantially unchanged”; the “effect of food on Cmax (in words)” value is given as “decreases”. In series [1] (setting [4]), the “AUC0-INF, % Ratio of geometric means” value is recorded as 96.8%; the “AUC0-t, % Ratio of geometric means” value is given as 96.1%; the “Cmax, % Ratio of geometric means” value is on record as 83.8%; the “Tmax, % Ratio” value stood at 137.5%. Further, in series [1] (setting [4]), the “T½, % Ratio” value was found to be 100% and the “kelm, % Ratio” value worked out at 98.7%. For the same compound, the half-life in series [1] (human, oral, carisoprodol in plasma, non-fasted, read-out: T½, least sq. mean (converted)) is 1.95 h. In series [1] (setting [5]), the AUC(0-inf) turned out to be 6510 ng·h/mL, the AUC(0-t) was found to be 6380 ng·h/mL, the Tmax is 1.63 h and the peak concentration (Cmax) was 2000 ng/mL. Besides, the highest concentration (Cmax) in series [1] (human, oral, carisoprodol in plasma, non-fasted (high fat meal)) is 1680 ng/mL. For the same compound, in series [1] (setting [6]), the AUC(0-inf) is 6310 ng·h/mL, the AUC(0-t) amounted to 6140 ng·h/mL and the time of peak concentration (Tmax) was determined as 2.24 h. In addition, the “solubility in organic solvents (in words)” value in series [2] (alcohol, chloroform, and acetone) is recorded as “freely soluble”. Also, the solubility in water in series [2] (between 25 to 50° C.) was 300 to 1400 µg/mL. In series [2] (water), the “solubility in water (in words)” value is listed as “very sparingly soluble”.
